# Source: article PMC7346113, “Screening of Natural Stilbene Oligomers from Vitis vinifera for Anticancer Activity on Human Hepatocellular Carcinoma Cells” (Antioxidants, 2020)
# Experiments:
# Assay type in all cases: cell-based, human
# HH4 = experiment: Cell viability, crystal violet assay, HH4 non-transformed hepatocytes; details: Homo sapiens, Hepatocyte, mean ± standard error
# Text: (§1) The human hepatoma cell line HepG2 was obtained from the American Tissue Culture Collection (ATCC, Manassas, VA, USA). The human hepatoma cell line Hep3B was obtained from the European Collection of Authenticated Cell Cultures (ECACC, Porton Down, Salisbury, Wiltshire, UK). HH4 non-transformed human hepatocyte cell line (kindly provided by Dr. I. Fabregat, Molecular Oncology, Bellvitge Biomedical Research Institute, Spain) was established as described.
# (§2) HepG2 and Hep3B cell lines were maintained in Eagle’s Minimum Essential Medium and HH4 cell line was grown in Ham´s F12 Nutrient Mixture (Sigma-Aldrich, St Louis, MO, USA). Both culture media were supplemented with 10% heat inactivated fetal bovine serum, 2 mM L-glutamine and antibiotics (0.1 mg/mL streptomycin and 100 U/mL penicillin) (Sigma-Aldrich, St Louis, MO, USA). Cell cultures were grown in an incubator at 37 °C with 5% CO2 atmosphere. After reaching approximately 80% of confluence, cells were detached in a solution of 0.1% trypsin and 0.04% EDTA and plated as required for further experiments.
# (§3) Cell lines were seeded into 96-well plates at 5 × 10^3 (HepG2) and 3 × 10^3 (Hep3B and HH4) cells/well 24 h before treatment. Increasing concentrations of the monomer trans-resveratrol, the dimers ampelopsin A and trans-ε-viniferin and the tetramers isohopeaphenol, hopeaphenol, R2-viniferin and R-viniferin were then added and cells were incubated for 24, 48, and 72 h. Stilbenes were dissolved in dimethyl sulfoxide (DMSO), Sigma-Aldrich, St Louis, MO, USA) at a final concentration of 0.01%. The same amount of DMSO was added to control cells. After treatment, the cell viability was determined using the crystal violet assay. The absorbance was recorded at 590 nm in a Synergy HT microplate reader (BioTek, Winooski, VT, USA). Cell viability was calculated as the percentage of viable cells treated with stilbene versus untreated control cells using the following equation: Cell viability (%) = [OD (Treatment) − OD (Blank)]/[OD (Control) − OD (Blank)] × 100. The cytotoxic effect of stilbenes was determined by calculating IC50 values using non-linear regression analysis (GraphPad Prism 6, San Diego, CA, USA).
# (§4) The statistical package SPSS 19.0 (SPSS Inc. Chicago, IL, USA) was used for data analysis. The results were expressed as mean ± standard error (SE) from at least three experiments. Statistical significance for the differences of the means was estimated by parametric Student’s t-test. Differences between means were considered statistically significant for p < 0.05. IC50 values were derived from fitting the data to a sigmoidal dose-response curve with a three-parameter logistic model using Graph Pad Prism 6.
# HepG2 [1] = experiment: Cell cycle analysis by flow cytometry (propidium iodide), HepG2; details: HepG2, 10 µM, mean ± SE
# Method: Exponentially growing cells were seeded in 6-wells plates (200,000 cells HepG2 and 180,000 cells Hep3B) 24 h before R2-viniferin treatment. On the day of treatment, the culture medium was replaced with culture medium containing R2-viniferin or vehicle solution (control).
# After a treatment, cells were detached by trypsinization and fixed overnight at 4 °C in 70% ice-cold ethanol diluted in phosphate buffer saline (PBS). The ethanol was then discarded and the cells were washed with ice-cold PBS and finally stained with 25 μg/mL of propidium iodide (Sigma-Aldrich, St Louis, MO, USA) in the presence of 200 μg/mL ribonuclease A (Roche Biochemicals, Indianapolis, IN, USA) for 30 min at room temperature in the dark. Flow cytometry analysis (Beckman Coulter Gallios) was carried out from a total number of 10,000 events acquired in the General Research Services SGIker of the UPV/EHU. Analysis of the data was performed using Summit 4.3 software (Dako, Glostrup, Hovedstaden, Denmark).
# [2] = test system: intracellular ROS in HepG2; experiment: Intracellular ROS, H2DCF-DA assay, flow cytometry
# Method: Intracellular levels of reactive oxygen species (ROS) were measured using the cell-permeant 2’,7’ dichlorodihydrofluorescein diacetate (H2DCF-DA) probe (Molecular Probes, Eugene, OR, USA), which permeates living cells and is deacetylated and oxidized upon ROS exposure inside the cell, forming the fluorescent 2’,7’-dichlorofluorescein (DCF).
# HepG2 cells were cultured in a 6-well cell culture plate at a density of 2 × 10^5 cells per well 24 h before starting the treatment with R2-viniferin. The medium was renewed and cells were incubated with R2-viniferin as described above. After treatment, cells were washed and incubated with 20 μM H2DCF-DA or 4 μM MitoSOX™ for 30 min at 37 °C in the dark. The probe solution was then withdrawn and, after washing with PBS, the cells were trypsinized. The fluorescence intensity from living cells was measured by flow cytometry (DCF λex = 485/20 and λem = 528/20, MitoSOX λex = 485/20 and λem = 620/20) in a Beckman Coulter Gallios Flow cytometer in the General Research Services SGIker of the UPV/EHU. At least 10,000 events were detected. Data obtained from flow cytometry were analyzed using Summit 4.3 software (Dako, Hovedstaden, Denmark). Intracellular ROS and mitochondrial O2^− were expressed as the percentage of the fluorescence intensity in control cells at the same time of incubation.
# Hep3B = experiment: Cell viability, crystal violet assay, Hep3B; details: mean ± standard error
# Text: as §1, §2, §3, §4
# HepG2 [3] = experiment: Cell viability, crystal violet assay, HepG2; details: mean ± standard error
# Text: as §1, §2, §3, §4
structure (smiles),measurement,setting,value
Oc1ccc([C@H]2c3c(O)cc(O)cc3[C@H]3c4c(cc(O)cc4[C@@H]2c2cc(/C=C/c4cc(O)cc5c4[C@H](c4cc(O)cc(O)c4)[C@@H](c4ccc(O)cc4)O5)ccc2O)O[C@@H]3c2ccc(O)cc2)cc1 [R2-Viniferin],IC50,HH4; 24 h,> 200 µM
same,IC50,HH4; 48 h,> 200 µM
same,IC50,HH4; 72 h,> 200 µM
same,Cell cycle G0/G1 (percentage of cells),HepG2 [1]; 24 h,65.6 ± 11.7%
same,Cell cycle G2/M (percentage of cells),HepG2 [1]; 24 h,22.5 ± 8.5%
same,Cell cycle S (percentage of cells),HepG2 [1]; 24 h,11.9 ± 3.2%
same,SubG0 (percentage of total cells),HepG2 [1]; 24 h,8.5 ± 2.7%
same,Cell cycle G0/G1 (percentage of cells),HepG2 [1]; 48 h,71.7 ± 10.9%
same,Cell cycle G2/M (percentage of cells),HepG2 [1]; 48 h,19.3 ± 6.5%
same,Cell cycle S (percentage of cells),HepG2 [1]; 48 h,9.0 ± 4.5%
same,SubG0 (percentage of total cells),HepG2 [1]; 48 h,22.4 ± 11.0%
same,Cell cycle G0/G1 (percentage of cells),HepG2 [1]; 72 h,75.5 ± 7.8%
same,Cell cycle G2/M (percentage of cells),HepG2 [1]; 72 h,15.0 ± 2.2%
same,Cell cycle S (percentage of cells),HepG2 [1]; 72 h,9.5 ± 5.6%
same,SubG0 (percentage of total cells),HepG2 [1]; 72 h,71.0 ± 2.1%
same,Effect on intracellular ROS concentration,"[2]; HepG2, 5 and 10 µM, from the first time assayed",increased the intracellular ROS concentration dose-dependently
same,Effect on intracellular ROS,"[2]; HepG2, highest concentration used (10 µM)",ROS remained significantly elevated up to 72 h
same,IC50,Hep3B; 72 h,47.8 ± 2.8 µM
same,IC50,"Hep3B; Homo sapiens, Hep3B, 24 h",> 200 µM
same,IC50,"Hep3B; Homo sapiens, Hep3B, 48 h",43.9 ± 3.6 µM
same,IC50,"Hep3B; Homo sapiens, Hep3B, 72 h",48 µM
same,IC50,HepG2 [3]; 72 h,9.7 ± 0.4 µM
same,IC50,"HepG2 [3]; Homo sapiens, HepG2, 24 h, 24 h",> 200 µM
same,IC50,"HepG2 [3]; Homo sapiens, HepG2, 48 h, 48 h",10.2 ± 8.2 µM
same,IC50,"HepG2 [3]; Homo sapiens, HepG2, 72 h, 72 h",< 10 µM
